Assay results reported in patent US10167453B2, “Saccharide oxidase, and production method for same and use of same” (AMANO ENZYME INC., priority 2012, dated 2019).
Like-named read-outs stand apart in the source and are kept apart here.

Legend:
[1] = target: Acremonium chrysogenum NBRC30055-derived saccharide oxidase (Hapsidospora chrysogena, UniProt A0A086T4F9); assay: Investigation of substrate specificity; type: biochemical
Procedure: Using each saccharide indicated in Table 4 shown below as a substrate and in the presence of oxygen, the protein purified in Example 1 described above was reacted for 5 minutes at 37° C. at pH 7.0, and the measurement was conducted in accordance with the aforementioned saccharide oxidase activity measuring method. In addition, regarding the activity toward the glucose as 100%, the relative value of the activity toward each saccharide was calculated, thereby evaluating the substrate specificity.

[2] = tested on: OC[C@H]1OC(O)[C@H](O)[C@@H](O)[C@@H]1O; assay: purified protein, by the assay type; settings: other: saccharide as substrate of the purified protein; pH 7.0; 37.0 °C
From the text: Using the protein purified in the aforementioned Example together with glucose and maltose as substrates, the aforementioned saccharide oxidase activity method was used to measure the activity thereby obtaining Hanes-Woolf plots, from which each Michaelis constant (Km) was obtained.

[3] = Investigation of pH stability; type: physicochemical; settings: pH5.0 to pH10.5, 15 minutes at 37° C.; treatment at pH7.0 = 100%; maltose substrate
Procedure: (§1) Since a quinoneimine color having absorption band at a wavelength of 550 nm was formed when the enzymatic reaction advanced, the saccharide oxidase activity was measured by measuring the increase in the absorbance at a wavelength of 550 nm per minute.
The protein solution purified in the aforementioned Example 1 and the buffer solution of each pH used in the aforementioned Example 3 were mixed in equal volumes and treated for 15 minutes at 37° C., and thereafter the activity was measured by the aforementioned saccharide oxidase activity measuring method. As a substrate, maltose was used. In addition, regarding the activity when using monopotassium phosphate-sodium hydroxide buffer solution (pH7.0) for treatment as 100%, each relative value of the activity was calculated. The results are indicated in the drawing-substituting graph of FIG. 3.

[4] = Investigation of thermostability; type: physicochemical
Procedure: as §1
The protein solution purified in the aforementioned Example 1 was subjected to a heat treatment for 15 minutes at a temperature of 20° C., 25° C., 30° C., 35° C., 37° C., 40° C., 45° C., 50° C., 55° C., 60° C., 65° C., 70° C., 75° C., and 80° C., and thereafter the residual activity was measured by the aforementioned saccharide oxidase activity method. Regarding the activity with no heat treatment as 100%, each value of the residual activity was calculated. The results are indicated in the drawing-substituting graph of FIG. 5.

[5] = Thermal inactivation after desugaring of egg white; type: physicochemical
Procedure: 100 μL of the desugared egg white was subjected to a heat treatment at a temperature of 54, 56, and 58° C. for 1, 3, 5, and 8 minutes, respectively, and then cooled on ice, and the residual activity of each enzyme was measured.

[6] = Production of lactobionic acid (HPLC verification); type: biochemical; settings: 3 U protein, 0.75 g lactose monohydrate, 23 hours, 40° C., 160 rpm
Procedure: 3 ml of a solution containing 0.75 g of lactose monohydrate, 0.225 g of potassium carbonate, and 3 U of the protein purified in the aforementioned Example 1 was added and shaken for 23 hours under the condition involving 40° C. and 160 rpm.
After the reaction, the sample was boiled for 10 minutes and then centrifuged at 15,000 rpm for 10 minutes. The resultant supernatant was filtered through a 0.45 μm filter and subjected to an HPLC analysis.

[7] = saccharide as substrate, activity toward glucose = 100%, 37° C., pH 7.0, 5 minutes, in the presence of oxygen
[8] = relative activity 50% or higher versus glucose is judged satisfactory

Maltopentaose
Relative activity (%) [1, 7]: 39%

O=C(CO)[C@@H](O)[C@H](O)[C@H](O)CO [D(−)-Fructose]
Relative activity (%) ([1]; pH 7): 0%
effect of the saccharide oxidase on the substrate (in words) [1, 8]: No effect

Maltohexaose
Relative activity (%) [1, 7]: 28%

OC[C@H]1O[C@H](O[C@H]2[C@H](O)[C@@H](O)[C@@H](O[C@H]3[C@H](O)[C@@H](O)[C@@H](O[C@H]4[C@H](O)[C@@H](O)C(O)O[C@@H]4CO)O[C@@H]3CO)O[C@@H]2CO)[C@H](O)[C@@H](O)[C@@H]1O (some centres unmarked) [Maltotetraose]
effect of the saccharide oxidase on the substrate (in words) [1, 8]: satisfactory effect
Relative activity (%) [1, 7]: 60%
Relative activity (%) ([1]; saccharide as substrate, activity toward glucose = 100%, 37° C., pH 7.0, 5 minutes, in the presence of oxygen, listed as maltotetraose): about 60%

OC[C@H]1O[C@@](CO)(O[C@H]2O[C@H](CO)[C@@H](O)[C@H](O)[C@H]2O)[C@@H](O)[C@@H]1O [Sucrose]
Relative activity (%) ([1]; pH 7): 0%
effect of the saccharide oxidase on the substrate (in words) [1, 8]: No effect

Maltose monohydrate
effect of the saccharide oxidase on the substrate (in words) [1]: satisfactory effect

O=C[C@H](O)[C@@H](O)[C@@H](O)[C@H](O)CO [Galactose]
effect of the saccharide oxidase on the substrate (in words) [1, 8]: satisfactory effect
Relative activity (%) [1, 7]: 79%
Relative activity (%) ([1]; saccharide as substrate, activity toward glucose = 100%, 37° C., pH 7.0, 5 minutes, in the presence of oxygen, listed as galactose): about 79%

OC[C@H]1O[C@@H](O[C@H]2[C@H](O)[C@@H](O)[C@H](O)O[C@@H]2CO)[C@H](O)[C@@H](O)[C@@H]1O [D(+)-Cellobiose]
effect of the saccharide oxidase on the substrate (in words) [1, 8]: satisfactory effect

Maltotriose
effect of the saccharide oxidase on the substrate (in words) [1, 8]: satisfactory effect
Relative activity (%) [1, 7]: 92%
Relative activity (%) ([1]; saccharide as substrate, activity toward glucose = 100%, 37° C., pH 7.0, 5 minutes, in the presence of oxygen, listed as maltotriose): about 92%

Maltoheptaose
Relative activity (%) [1, 7]: 24%

Lactose monohydrate
effect of the saccharide oxidase on the substrate (in words) [1]: satisfactory effect

Acremonium chrysogenum NBRC30055-derived saccharide oxidase (Hapsidospora chrysogenum ATCC 11550)
Km [2]: 8 mM

B1: Saccharide oxidase: protein having saccharide oxidase activity purified from Acremonium chrysogenum NBRC30055, about 63 kDa, amino acid sequence SEQ. ID. NO:10 (protein, listed as Acremonium chrysogenum)
chain: MRSLAPLLSIAALARASPVDTSLLTRQETLNTCLEAAELSYVDVNSEDWEDAIVPHNLRVPVVPRAVVYATATEQIQAAVKCAVESEIRVSAKSGGHSYASMGLGGEDGSLVIQLDHWHDVTLRDDNTAVVSAGTRLGVVALELYAQGKRGISHGTCPSVGVGGHVVHGGYGFSSHTHGLALDAVVGANVVLADGSLVHASETENTDLFWALRGGGSSFGIVAEFEFETFDVSHNFSYFSIDSDISQETAEEATASLLAFQDALEEGLMDRKLNMRLSLGRPKVTLEAVYHGAKEDGRKALELFDDILGLNWSSNRTRANEADWLTMLESWTYGDPLNITYPYEGHDNAYTSSLVTRHIPEDAMASFMTYWKGVGQDRETPNWWLQMDVHGDANSRISEVDADSTAYSHRDKLWLFQFSSPLNPLRPDPEAAFALVNGYMDSIKDHLGDGEWGRYANYIDSELSREDAQTQYWSDHLDKLQAIKAELDPTQVFYNPQSIDPAAVE
residual activity after pH treatment [3]: ≥ 85%
residual activity after heat treatment ([4]; 15 minutes at 45° C., pH7.0, no heat treatment = 100%): ≥ 80%
temperature up to which stability was observed ([4]; heat treatment for 15 minutes): up to 45 °C
residual enzyme activity in desugared egg white after heat treatment ([5]; 54 and 56° C., 1, 3, 5 and 8 minutes): no substantial reduction in the activity
residual enzyme activity in desugared egg white after heat treatment ([5]; 58° C. for 5 minutes or longer, compared with the glucose oxidase): significant reduction in the activity
production of lactobionic acid from lactose [6]: production of the lactobionic acid was verified
